Measurements as given in the NIST ThermoML archive (doi:10.1016/j.fluid.2012.08.002).

Test: xn = mol fraction of the nth substance listed
Conditions: 101 kPa, Liquid; for speed of sound: Sing-around technique in a fixed-path interferometer; for mass density: Vibrating tube method

CCCCCCn1cc[n+](C)c1.[Br-] [3-hexyl-1-methyl-1H-imidazolium bromide] + COCCO
Conditions	mass density [kg/m3]	speed of sound [m/s]
288.15 K, x1 = 0.0541	1003.16	1406.2
288.15 K, x1 = 0.1114	1033.95	1427.1
288.15 K, x1 = 0.2063	1075.85	1455
288.15 K, x1 = 0.3163	1113.65	1481.2
288.15 K, x1 = 0.399	1136.61	1498.5
288.15 K, x1 = 0.5066	1160.88	1518.9
288.15 K, x1 = 0.5919	1177.15	1532.1
288.15 K, x1 = 0.7003	1194.68	1550.1
288.15 K, x1 = 0.8193	1210.88	1578.5
288.15 K, x1 = 0.905	1221.01	1610.1
293.15 K, x1 = 0.0541	998.827	1389.9
293.15 K, x1 = 0.1114	1029.8	1411.5
293.15 K, x1 = 0.2063	1071.89	1440.2
293.15 K, x1 = 0.3163	1109.92	1467.3
293.15 K, x1 = 0.399	1132.93	1485.4
293.15 K, x1 = 0.5066	1157.28	1506
293.15 K, x1 = 0.5919	1173.58	1519.1
293.15 K, x1 = 0.7003	1191.1	1535.7
293.15 K, x1 = 0.8193	1207.23	1560
293.15 K, x1 = 0.905	1217.37	1584.7
298.15 K, x1 = 0.0541	994.442	1373.6
298.15 K, x1 = 0.1114	1025.66	1395.9
298.15 K, x1 = 0.2063	1067.99	1425.3
298.15 K, x1 = 0.3163	1106.17	1454
298.15 K, x1 = 0.399	1129.03	1472.5
298.15 K, x1 = 0.5066	1153.7	1493.4
298.15 K, x1 = 0.5919	1169.99	1506.4
298.15 K, x1 = 0.7003	1187.69	1521.9
298.15 K, x1 = 0.8193	1203.66	1543.4
298.15 K, x1 = 0.905	1213.6	1563.8
303.15 K, x1 = 0.0541	990.104	1357.4
303.15 K, x1 = 0.1114	1021.6	1380.5
303.15 K, x1 = 0.2063	1064.1	1410.7
303.15 K, x1 = 0.3163	1102.4	1440.7
303.15 K, x1 = 0.399	1125.44	1459.6
303.15 K, x1 = 0.5066	1150.12	1481
303.15 K, x1 = 0.5919	1166.5	1494.1
303.15 K, x1 = 0.7003	1184.24	1509.1
303.15 K, x1 = 0.8193	1200.22	1528.5
303.15 K, x1 = 0.905	1210.1	1545.7
308.15 K, x1 = 0.0541	985.747	1341.1
308.15 K, x1 = 0.1114	1017.43	1365.1
308.15 K, x1 = 0.2063	1060.19	1396.3
308.15 K, x1 = 0.3163	1098.64	1427.5
308.15 K, x1 = 0.399	1121.85	1446.7
308.15 K, x1 = 0.5066	1146.54	1468.7
308.15 K, x1 = 0.5919	1162.92	1482
308.15 K, x1 = 0.7003	1180.7	1496.7
308.15 K, x1 = 0.8193	1196.79	1514.7
308.15 K, x1 = 0.905	1206.71	1529.7
313.15 K, x1 = 0.0541	981.397	1324.9
313.15 K, x1 = 0.1114	1013.1	1349.9
313.15 K, x1 = 0.2063	1056.1	1382.4
313.15 K, x1 = 0.3163	1094.88	1414.3
313.15 K, x1 = 0.399	1118.18	1433.9
313.15 K, x1 = 0.5066	1142.96	1456.5
313.15 K, x1 = 0.5919	1159.44	1470.3
313.15 K, x1 = 0.7003	1177.16	1484.8
313.15 K, x1 = 0.8193	1193.35	1501.8
313.15 K, x1 = 0.905	1203.34	1515.2
318.15 K, x1 = 0.0541	976.988	1308.7
318.15 K, x1 = 0.1114	1009.12	1335.8
318.15 K, x1 = 0.2063	1052.25	1369.4
318.15 K, x1 = 0.3163	1091.12	1401.5
318.15 K, x1 = 0.399	1114.51	1421.1
318.15 K, x1 = 0.5066	1139.37	1444.5
318.15 K, x1 = 0.5919	1155.95	1458.7
318.15 K, x1 = 0.7003	1173.69	1473.2
318.15 K, x1 = 0.8193	1189.89	1489.7
318.15 K, x1 = 0.905	1199.95	1501.9
